# Assay results published in PubChem BioAssay AID1963863 (Molecular Pharmacology Branch, DTP, NCI, 2024).
# Test system: 931267-113-T-J1-PDC KRAS spheroid with HUVEC/MSC, viability
# Assay: Anticancer human tumor 931267-113-T-J1-PDC patient-derived colon adenocarcinoma cell line growth inhibition [KRAS2]
# Conditions: for IC50: curve of first compound; for viability, T/C: stronger effect = lower value
# Method in brief: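 KRAS-mutant tumor cells were grown as spheroids with HUVEC endothelial cells and human MSCs as stroma. Targeted agents were tested alone and with KRAS pathway inhibitors. Doses started at or near clinical Cmax, or 10 microM, descending half-log.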
# [1] = second compound 0.1 µM, first compound 0.0316 µM
# [2] = second compound 0.1 µM, first compound 0.1 µM
# [3] = second compound 0.1 µM, first compound 0.316 µM
# [4] = second compound 0.1 µM, first compound 1 µM
# [5] = second compound 0.1 µM, first compound 3.16 µM
# [6] = second compound 0.1 µM, first compound 10 µM
# [7] = second compound 0.316 µM, first compound 0.0316 µM
# [8] = second compound 0.316 µM, first compound 0.1 µM
# [9] = second compound 0.316 µM, first compound 0.316 µM
# [10] = second compound 0.316 µM, first compound 1 µM
# [11] = second compound 0.316 µM, first compound 3.16 µM
# [12] = second compound 0.316 µM, first compound 10 µM
# [13] = second compound 1 µM, first compound 0.0316 µM
# [14] = second compound 1 µM, first compound 0.1 µM
# [15] = second compound 1 µM, first compound 0.316 µM
# [16] = second compound 1 µM, first compound 1 µM
# [17] = second compound 1 µM, first compound 3.16 µM
# [18] = second compound 1 µM, first compound 10 µM
# [19] = second compound 3.16 µM, first compound 0.0316 µM
# [20] = second compound 3.16 µM, first compound 0.1 µM
# [21] = second compound 3.16 µM, first compound 0.316 µM
# [22] = second compound 3.16 µM, first compound 1 µM
# [23] = second compound 3.16 µM, first compound 3.16 µM
# [24] = second compound 3.16 µM, first compound 10 µM
# [25] = second compound 10 µM, first compound 0.0316 µM
# [26] = second compound 10 µM, first compound 0.1 µM
# [27] = second compound 10 µM, first compound 0.316 µM
# [28] = second compound 10 µM, first compound 1 µM
# [29] = second compound 10 µM, first compound 3.16 µM
# [30] = second compound 10 µM, first compound 10 µM
# [31] = second compound 0.1 µM, first compound 0.01 µM
# [32] = second compound 0.316 µM, first compound 0.01 µM
# [33] = second compound 1 µM, first compound 0.01 µM
# [34] = second compound 3.16 µM, first compound 0.01 µM
# [35] = second compound 10 µM, first compound 0.01 µM
# [36] = second compound 0.1 µM, first compound 0.00316 µM
# [37] = second compound 0.316 µM, first compound 0.00316 µM
# [38] = second compound 1 µM, first compound 0.00316 µM
# [39] = second compound 3.16 µM, first compound 0.00316 µM
# [40] = second compound 10 µM, first compound 0.00316 µM
# 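Further: compound exposure lasted 7 days before the readout.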
# 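Wherever viability, T/C is given: 100% = DMSO vehicle control viability.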
Compound,IC50 (second compound 0.1 µM) [nM],IC50 (second compound 0.316 µM) [nM],IC50 (second compound 1 µM) [nM],IC50 (second compound 3.16 µM) [nM],IC50 (second compound 10 µM) [nM],"viability, T/C [1] [%]","viability, T/C [2] [%]","viability, T/C [3] [%]","viability, T/C [4] [%]","viability, T/C [7] [%]","viability, T/C [8] [%]","viability, T/C [9] [%]","viability, T/C [10] [%]","viability, T/C [13] [%]","viability, T/C [14] [%]","viability, T/C [15] [%]","viability, T/C [19] [%]","viability, T/C [20] [%]","viability, T/C [25] [%]","viability, T/C [26] [%]",also measured
CC(C)NCC(C(=O)N1CCN(c2ncnc3c2C(C)CC3O)CC1)c1ccc(Cl)cc1 (stereo not given) + CC1OCC2(CCN(c3cnc(Sc4ccnc(N)c4Cl)c(N)n3)CC2)C1N,3560,3720,5160,1850,2270,78.8,71.7,87,64.4,86.4,73.5,81.7,75.2,95,56.9,75.5,78.2,77.3,73.8,67.9,"viability, T/C [5]: 53.3%; viability, T/C [6]: 37.3%; viability, T/C [11]: 53%; viability, T/C [12]: 32.2%; viability, T/C [16]: 59.4%; viability, T/C [17]: 63.7%; viability, T/C [18]: 39%; viability, T/C [21]: 74.4%; viability, T/C [22]: 56.3%; viability, T/C [23]: 44.6%; viability, T/C [24]: 35%; viability, T/C [27]: 76.7%; viability, T/C [28]: 52.8%; viability, T/C [29]: 48.8%; viability, T/C [30]: 22.5%"
CC1COCCN1c1cc(-c2ccnn2C)c2ccnc(-c3ccn[nH]3)c2n1 (stereo not given) + CC1OCC2(CCN(c3cnc(Sc4ccnc(N)c4Cl)c(N)n3)CC2)C1N,42.4,45.3,44.3,33.2,59.9,57.3,28.9,16.6,16.9,63.4,20.6,15.6,19,58.5,29.6,18.1,50.4,29.3,80.5,25.6,"viability, T/C [31]: 92.3%; viability, T/C [5]: 19.5%; viability, T/C [32]: 81.2%; viability, T/C [11]: 18.6%; viability, T/C [33]: 91.1%; viability, T/C [16]: 18.5%; viability, T/C [17]: 13.6%; viability, T/C [34]: 80.6%; viability, T/C [21]: 16.1%; viability, T/C [22]: 15.4%; viability, T/C [23]: 18.4%; viability, T/C [35]: 86.9%; viability, T/C [27]: 14.4%; viability, T/C [28]: 13.9%; viability, T/C [29]: 15.6%"
CCN1CCN(Cc2ccc(Nc3ncc(F)c(-c4cc(F)c5nc(C)n(C(C)C)c5c4)n3)nc2)CC1 + CC1OCC2(CCN(c3cnc(Sc4ccnc(N)c4Cl)c(N)n3)CC2)C1N,27.3,32.8,41.2,68.8,201,43.5,51.4,53.7,36.9,50.3,43.3,45.1,37.5,53.1,41.4,42,54.4,43.6,52.9,58.7,"viability, T/C [36]: 75.4%; viability, T/C [31]: 58.2%; viability, T/C [37]: 63%; viability, T/C [32]: 91.7%; viability, T/C [38]: 69.5%; viability, T/C [33]: 82%; viability, T/C [16]: 35.3%; viability, T/C [39]: 71.5%; viability, T/C [34]: 70.2%; viability, T/C [21]: 40.8%; viability, T/C [22]: 23.8%; viability, T/C [40]: 70.6%; viability, T/C [35]: 79.1%; viability, T/C [27]: 49%; viability, T/C [28]: 9.83%"
CCNC(=O)CC1N=C(c2ccc(Cl)cc2)c2cc(OC)ccc2-n2c(C)nnc21 (stereo not given) + CC1OCC2(CCN(c3cnc(Sc4ccnc(N)c4Cl)c(N)n3)CC2)C1N,536,316,468,586,563,80.7,90.4,51.9,46.6,80.4,60.5,58.7,27.4,69.7,68.5,51.5,78.1,59.7,87.2,73.4,"viability, T/C [5]: 30.4%; viability, T/C [6]: 27.6%; viability, T/C [11]: 34.6%; viability, T/C [12]: 21.6%; viability, T/C [16]: 40.7%; viability, T/C [17]: 31%; viability, T/C [18]: 15.8%; viability, T/C [21]: 70.8%; viability, T/C [22]: 33%; viability, T/C [23]: 22.1%; viability, T/C [24]: 13.4%; viability, T/C [27]: 60.3%; viability, T/C [28]: 40.5%; viability, T/C [29]: 25.8%; viability, T/C [30]: 14.2%"
Cn1nccc1Nc1nccc(-c2cc3c(s2)C(C)(C)N(CCN2CCOCC2)C3=O)n1 + CC1OCC2(CCN(c3cnc(Sc4ccnc(N)c4Cl)c(N)n3)CC2)C1N,362,317,203,218,275,79.4,86.3,48.3,25.2,70.6,76.3,46,22.8,72.8,55.5,47.5,76.4,60.6,72.4,71.6,"viability, T/C [5]: 7.4%; viability, T/C [6]: 2.95%; viability, T/C [11]: 4.01%; viability, T/C [12]: 2.65%; viability, T/C [16]: 18.1%; viability, T/C [17]: 4.05%; viability, T/C [18]: 2.39%; viability, T/C [21]: 45.8%; viability, T/C [22]: 8.81%; viability, T/C [23]: 4.98%; viability, T/C [24]: 2.71%; viability, T/C [27]: 47%; viability, T/C [28]: 3.56%; viability, T/C [29]: 2.05%; viability, T/C [30]: 2.15%"
Cn1ncnc1[C@H]1c2n[nH]c(=O)c3cc(F)cc(c23)N[C@@H]1c1ccc(F)cc1 + CC1OCC2(CCN(c3cnc(Sc4ccnc(N)c4Cl)c(N)n3)CC2)C1N,> 100,> 100,> 100,> 100,> 100,90.3,80.5,,,60.8,68.4,,,70.3,51.2,,91.4,69.7,71,51,"viability, T/C (second compound 0.1 µM, first compound 0.000316 µM): 93.9%; viability, T/C (second compound 0.1 µM, first compound 0.001 µM): 97.8%; viability, T/C [36]: 89.2%; viability, T/C [31]: 89.3%; viability, T/C (second compound 0.316 µM, first compound 0.000316 µM): 84%; viability, T/C (second compound 0.316 µM, first compound 0.001 µM): 91.4%; viability, T/C [37]: 91.2%; viability, T/C [32]: 78.9%; viability, T/C (second compound 1 µM, first compound 0.000316 µM): 85.8%; viability, T/C (second compound 1 µM, first compound 0.001 µM): 85.3%; viability, T/C [38]: 85.4%; viability, T/C [33]: 95.2%; viability, T/C (second compound 3.16 µM, first compound 0.000316 µM): 83.7%; viability, T/C (second compound 3.16 µM, first compound 0.001 µM): 93.5%; viability, T/C [39]: 84.7%; viability, T/C [34]: 80.6%; viability, T/C (second compound 10 µM, first compound 0.000316 µM): 77.6%; viability, T/C (second compound 10 µM, first compound 0.001 µM): 73.5%; viability, T/C [40]: 85.3%; viability, T/C [35]: 77.8%"
